Measurements from patent US7153813B2, “Substituted aryl ketones” (Bayer Aktiengesellschaft, priority 2002, dated 2006).
Like-named read-outs stand apart in the source and are kept apart here.

What was measured:
[1] = logP determination by HPLC (EEC Directive 79/831 Annex V.A8), reverse-phase column C 18; format: physicochemical; details: for chromatographic logP: reverse-phase C18 HPLC column, stated in the preparation example, read-out: Log P
Protocol: The logP values given in the tables were determined in accordance with EEC Directive 79/831 Annex V.A8 by HPLC (High Performance Liquid Chromatography) using a reverse-phase column (C 18). Temperature: 43° C. • (a) Mobile phases for the determination in the acidic range: 0.1% aqueous phosphoric acid, acetonitrile; linear gradient from 10% acetonitrile to 90% acetonitrile—corresponding measurement data are marked a) in Table 1. • (b) Mobile phases for the determination in the neutral range: 0.01 molar aqueous phosphate buffer solution, acetonitrile; linear gradient from 10% acetonitrile to 90% acetonitrile—the corresponding measurement data are marked b) in Table 1. The calibration was carried out using unbranched alkan-2-ones (having 3 to 16 carbon atoms) with known logP values (determination of the logP values by the retention times using linear interpolation between two successive alkanones).

[2] = tested on: weeds; experiment: Pre-Emergence Test (Example A), damage to weeds; format: in vivo; details: soil sprayed 24 hours after sowing, rated after three weeks
Protocol: (§1) • Solvent: 5 parts by weight of acetone • Emulsifier: 1 part by weight of alkylaryl polyglycol ether
To produce a suitable preparation of active compound, 1 part by weight of active compound is mixed with the stated amount of solvent, the stated amount of emulsifier is added and the concentrate is diluted with water to the desired concentration.
Seeds of the test plants are sown in normal soil. After 24 hours, the soil is sprayed with the preparation of active compound such that the particular amount of active compound desired is applied per unit area. The concentration of active compound in the spray liquor is chosen such that the particular amount of active compound desired is applied in 1000 liters of water per hectare.
After three Weeks, the degree of damage to the plants is rated in % damage in comparison to the development of the untreated control. The figures denote: • 0%=no effect (like untreated control) • 100%=total destruction

[3] = tested on: weeds; experiment: Post-Emergence Test (Example B), damage to weeds; format: in vivo; details: test plants of 5–15 cm sprayed, rated after three weeks
Protocol: as §1
To produce a suitable preparation of active compound, 1 part by weight of active compound is mixed with the stated amount of solvent, the stated of amount of emulsifier is added and the concentrate is diluted with water to the desired concentration.
Test plants of a height of 5–15 cm are sprayed with the preparation of active compound such that the particular amounts of active compound desired are applied per unit area. The concentration of the spray liquor is chosen such that the particular amounts of active compound desired are applied in 1000 l of water/Ha.
After three weeks, the degree of damage to the plants is rated in % damage in comparison to the development of the untreated control.
The figures denote: • 0%=no effect (like untreated control) • 100%=total destruction

[4] = HPLC, reverse-phase C 18, 43° C., acidic range: 0.1% aqueous phosphoric acid, acetonitrile, gradient 10% to 90% (marked a))

Compound	logP [1]	logP [1, 4]	chromatographic logP [1]	activity against weeds (degree of damage) [2]	activity against weeds (degree of damage) [3]
CCn1ncc(C(=O)c2ccc(C(F)(F)F)cc2CS(C)(=O)=O)c1OCC(=O)c1ccccc1 [Example 20]	logP = 3.01^a)			strong activity	strong activity
CCn1ncc(C(=O)c2ccc(C(F)(F)F)cc2CS(C)(=O)=O)c1OC(=O)c1ccccc1 [Example 21]	logP = 3.07^a)			strong activity	
CCn1ncc(C(=O)c2ccc(C(F)(F)F)cc2CS(C)(=O)=O)c1OCc1cccc(C)c1 [Example 16]	logP = 3.57^a)			strong activity	
CCn1ncc(C(=O)c2ccc(C(F)(F)F)cc2CS(C)(=O)=O)c1OCc1ccccc1C [Example 19]	logP = 3.52^a)			strong activity	strong activity
CCn1ncc(C(=O)c2ccc(C(F)(F)F)cc2CS(C)(=O)=O)c1OCc1cccc(Cl)c1 [Example 15]	logP = 3.60^a)			strong activity	
CCn1ncc(C(=O)c2ccc(C(F)(F)F)cc2CS(C)(=O)=O)c1OCc1ccc(C)cc1 [Example 13]	logP = 3.57^a)			strong activity	
CS(=O)(=O)Cc1cc(C(F)(F)F)ccc1C(=O)C1=C(Cl)CCCC1=O [Example 33]	logP = 2.42^a)				
CCn1ncc(C(=O)c2ccc(C(F)(F)F)cc2CS(C)(=O)=O)c1OS(=O)(=O)c1ccc(C)cc1 [Example 22]		logP = 3.39^a)		strong activity	
CCn1ncc(C(=O)c2ccc(C(F)(F)F)cc2CS(C)(=O)=O)c1OCc1ccc(F)cc1 [Example 12]	logP = 3.30^a)			strong activity	
CC1(C)CCC(=O)C(C(=O)c2ccc(C(F)(F)F)cc2CS(C)(=O)=O)C1=O (centres unmarked) [Example 30]	logP = 2.86^a)				
CCn1ncc(C(=O)c2ccc(C(F)(F)F)cc2CS(C)(=O)=O)c1OCc1ccc(Cl)cc1 [Example 10]	logP = 3.64^a)			strong activity	
CCn1ncc(C(=O)c2ccc(C(F)(F)F)cc2CS(C)(=O)=O)c1OCc1cccc(F)c1 [Example 14]	logP = 3.30^a)			strong activity	
CCn1ncc(C(=O)c2ccc(C(F)(F)F)cc2CS(C)(=O)=O)c1OCc1ccccc1 [Example 11]	logP = 3.26^a)			strong activity	
CCn1ncc(C(=O)c2ccc(C(F)(F)F)cc2CS(C)(=O)=O)c1OCc1ccccc1F [Example 17]	logP = 3.29^a)			strong activity	
CCn1ncc(C(=O)c2ccc(C(F)(F)F)cc2CS(C)(=O)=O)c1OCc1ccccc1Cl [Example 18]	logP = 3.56^a)			strong activity	strong activity
CCn1ncc(C(=O)c2ccc(C(F)(F)F)cc2CS(C)(=O)=O)c1OCc1ccc(Br)cc1 [Example 2, [1-ethyl-5-(4-bromophenylmethoxy)-1H-pyrazol-4-yl]-(2-methylsulphonylmethyl-4-trifluoromethylphenyl)methanone]		logP = 3.76^a)	3.76	strong activity	strong activity
CCSCc1cc(C(F)(F)F)ccc1C(=O)c1cnn(CC)c1O [Example 32]		logP = 3.36^a)			

Now from value to compound, other results behind:

logP [1]	logP [1, 4]	chromatographic logP [1]	Compound	activity against weeds (degree of damage) [2]	activity against weeds (degree of damage) [3]
logP = 2.70^a)			CCOC(=O)C(C)Oc1c(C(=O)c2ccc(C(F)(F)F)cc2CS(C)(=O)=O)cnn1C (centres unmarked) [Example 28]		
logP = 2.44^a)			CCOC(=O)COc1c(C(=O)c2ccc(C(F)(F)F)cc2CS(C)(=O)=O)cnn1C [Example 27]		
	logP = 1.57^a)		Cn1ncc(C(=O)c2ccc(C(F)(F)F)cc2CS(C)(=O)=O)c1O [Example 4]	strong activity	
logP = 3.02^a)			Cn1ncc(C(=O)c2ccc(C(F)(F)F)cc2CS(C)(=O)=O)c1OCc1ccc(F)cc1 [Example 6]	strong activity	
logP = 2.30^a)			C#CCOc1c(C(=O)c2ccc(C(F)(F)F)cc2CS(C)(=O)=O)cnn1C [Example 29]		
logP = 3.32^a)			Cn1ncc(C(=O)c2ccc(C(F)(F)F)cc2CS(C)(=O)=O)c1OCc1ccc(Cl)cc1 [Example 7]	strong activity	
logP = 2.72^a)			CCOC(=O)COc1c(C(=O)c2ccc(C(F)(F)F)cc2CS(C)(=O)=O)cnn1CC [Example 25]		
logP = 2.50^a)			CCn1ncc(C(=O)c2ccc(C(F)(F)F)cc2CS(C)(=O)=O)c1OS(C)(=O)=O [Example 23]	strong activity	strong activity
logP = 3.41^a)			Cn1ncc(C(=O)c2ccc(C(F)(F)F)cc2CS(C)(=O)=O)c1OCc1ccc(Br)cc1 [Example 8]	strong activity	
	logP = 1.88^a)	1.88	CCn1ncc(C(=O)c2ccc(C(F)(F)F)cc2CS(C)(=O)=O)c1O [Example 1, (1-ethyl-5-hydroxy-1H-pyrazol-4-yl)-(2-methylsulphonylmethyl-4-trifluoromethylphenyl)methanone]	strong activity	strong activity
logP = 3.26^a)			Cc1ccc(COc2c(C(=O)c3ccc(C(F)(F)F)cc3CS(C)(=O)=O)cnn2C)cc1 [Example 9]	strong activity	
logP = 3.01^a)			CCOC(=O)C(C)Oc1c(C(=O)c2ccc(C(F)(F)F)cc2CS(C)(=O)=O)cnn1CC (centres unmarked) [Example 26]		
logP = 2.59^a)			C#CCOc1c(C(=O)c2ccc(C(F)(F)F)cc2CS(C)(=O)=O)cnn1CC [Example 24]		
logP = 2.94^a)			Cn1ncc(C(=O)c2ccc(C(F)(F)F)cc2CS(C)(=O)=O)c1OCc1ccccc1 [Example 5]	strong activity	strong activity
